Measured values published in patent EP0877740B1, “THIOL DERIVATIVES WITH METALLOPEPTIDASE INHIBITORY ACTIVITY” (ZAMBON GROUP S.p.A., priority 1995, dated 1997).
Read-outs that look alike come from different tables or passages of the source.

Key:
NEP = biological target: T1, NEP (Rattus norvegicus, UniProt P07861); experiment: Ex vivo NEP-inhibitory activity in kidney homogenates of treated SHR (GAAP substrate); design: After the removal of the kidneys from SHR, the renal tissue was homogenized; from tissue; host or cells: kidney homogenate of spontaneously hypertensive rats (SHR); species or system spontaneously hypertensive rats (SHR); conditions: oral 30 µmoles/kg; for inhibition at 30 µmol/kg: rat, SHR kidneys
T1 sequence (P07861 1-750): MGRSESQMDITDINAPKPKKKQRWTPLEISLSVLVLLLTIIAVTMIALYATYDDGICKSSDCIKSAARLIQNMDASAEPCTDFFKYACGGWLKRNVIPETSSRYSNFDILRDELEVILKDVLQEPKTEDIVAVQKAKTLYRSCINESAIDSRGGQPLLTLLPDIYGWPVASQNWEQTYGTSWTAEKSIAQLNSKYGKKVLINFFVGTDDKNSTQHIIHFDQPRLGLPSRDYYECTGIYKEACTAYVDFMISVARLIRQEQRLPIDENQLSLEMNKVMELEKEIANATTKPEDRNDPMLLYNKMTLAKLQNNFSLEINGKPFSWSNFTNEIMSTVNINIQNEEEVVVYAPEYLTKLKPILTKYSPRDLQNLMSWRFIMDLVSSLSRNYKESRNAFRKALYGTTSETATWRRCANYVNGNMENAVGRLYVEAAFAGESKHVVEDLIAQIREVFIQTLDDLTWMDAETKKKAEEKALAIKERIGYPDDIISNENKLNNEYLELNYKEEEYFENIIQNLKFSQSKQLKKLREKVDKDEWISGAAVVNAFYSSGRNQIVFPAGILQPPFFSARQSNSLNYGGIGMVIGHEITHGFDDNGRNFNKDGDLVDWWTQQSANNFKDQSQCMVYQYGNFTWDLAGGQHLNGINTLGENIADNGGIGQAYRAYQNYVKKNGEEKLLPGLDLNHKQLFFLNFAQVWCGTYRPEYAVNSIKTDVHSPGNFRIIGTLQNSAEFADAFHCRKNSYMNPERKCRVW
Description: (§1) The ex-vivo ACE/NEP-inhibitory activity, in particular, was determined by evaluating the enzymatic activity in tissue homogenates (lung and kidney for ACE and NEP activity, respectively) from spontaneously hypertensive rats (SHR) treated with the tested compounds by intravenous or oral route.
The ex vivo NEP-inhibitory activity was evaluated according to the procedure reported in the literature by M. Orlowsky et al., in Biochemistry 1981, 20, 4942-4950.
The inhibitory activity of the compounds of formula I was evaluated in kidneys of spontaneously hypertensive rats (SHR), 5 minutes after i.v. injection (0.6 and 21 µmoles/kg) and 30 minutes, 60 minutes and 4 hours after oral administration (30 µmoles/kg) of the tested compounds.
After the removal of the kidneys from SHR, the renal tissue was homogenized and incubated for 15 minutes at 37°C in the presence of Glutaryl-Ala-Ala-Phe-2-naphthylamide (GAAP), as a substrate, and aminopeptidase M at pH 7.6.
The reaction was stopped by adding an aqueous solution at 10% of trichloroacetic acid.
The released 2-naphthylamine was determined by adding fast garnet dye (2 ml).
Enzyme reaction rates were determined by measuring the increase in the optical density at 524 nm (OD524) with respect to a standard obtained with 2-naphthylamine complexed with fast garnet.
The NEP-inhibitory activity of the tested compounds was expressed as percentage of NEP-inhibition in SHR kidneys.

ACE = biological target: T2, ACE (Rattus norvegicus, UniProt P47820); experiment: Ex vivo ACE-inhibitory activity in lung homogenates of treated SHR (radiometric, [3H]Hyp-Gly-Gly); design: species or system spontaneously hypertensive rats (SHR); conditions: SHR lungs, oral 30 µmoles/kg
T2 construct: After the removal of the lungs from SHR, the lung tissue was homogenized; from tissue; host or cells: lung homogenate of spontaneously hypertensive rats (SHR)
T2 sequence (P47820 36-1313): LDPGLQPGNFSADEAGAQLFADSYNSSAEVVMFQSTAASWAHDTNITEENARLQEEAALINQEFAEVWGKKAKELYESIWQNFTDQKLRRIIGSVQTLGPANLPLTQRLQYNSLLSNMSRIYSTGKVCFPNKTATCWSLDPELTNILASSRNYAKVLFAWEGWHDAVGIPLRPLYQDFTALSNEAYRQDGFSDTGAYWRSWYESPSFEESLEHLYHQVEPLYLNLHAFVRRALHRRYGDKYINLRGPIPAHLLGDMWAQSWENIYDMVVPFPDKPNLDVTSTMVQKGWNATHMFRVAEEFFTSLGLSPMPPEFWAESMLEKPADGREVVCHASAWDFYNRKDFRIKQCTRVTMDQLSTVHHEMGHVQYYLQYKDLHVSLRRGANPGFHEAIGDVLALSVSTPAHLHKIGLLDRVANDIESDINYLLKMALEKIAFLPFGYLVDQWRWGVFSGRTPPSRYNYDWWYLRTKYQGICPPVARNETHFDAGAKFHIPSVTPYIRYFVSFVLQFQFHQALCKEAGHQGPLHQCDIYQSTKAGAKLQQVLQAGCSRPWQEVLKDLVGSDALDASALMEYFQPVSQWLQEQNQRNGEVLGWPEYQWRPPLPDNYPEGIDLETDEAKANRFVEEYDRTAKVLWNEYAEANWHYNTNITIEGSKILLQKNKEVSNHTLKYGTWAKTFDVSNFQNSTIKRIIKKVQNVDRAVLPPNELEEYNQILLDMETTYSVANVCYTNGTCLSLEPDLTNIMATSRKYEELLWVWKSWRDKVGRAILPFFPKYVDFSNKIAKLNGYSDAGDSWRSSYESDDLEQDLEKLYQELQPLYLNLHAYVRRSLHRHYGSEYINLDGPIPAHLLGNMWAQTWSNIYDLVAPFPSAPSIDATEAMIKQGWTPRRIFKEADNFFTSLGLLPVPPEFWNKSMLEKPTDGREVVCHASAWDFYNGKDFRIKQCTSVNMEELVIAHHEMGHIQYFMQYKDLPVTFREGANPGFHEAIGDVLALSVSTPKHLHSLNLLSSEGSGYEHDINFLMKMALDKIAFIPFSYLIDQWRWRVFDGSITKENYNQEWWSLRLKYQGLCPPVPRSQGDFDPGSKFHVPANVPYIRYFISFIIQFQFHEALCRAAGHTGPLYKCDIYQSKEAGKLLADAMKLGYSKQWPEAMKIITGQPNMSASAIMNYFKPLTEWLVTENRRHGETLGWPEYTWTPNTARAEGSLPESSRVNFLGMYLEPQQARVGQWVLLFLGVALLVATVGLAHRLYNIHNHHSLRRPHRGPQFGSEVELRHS
Description: as §1
The ex vivo ACE-inhibitory activity was evaluated by using a radiometric assay method, as reported in the literature by J. W. Ryan et al. in Biochem. J. (1977), 167, 501-504.
The inhibitory activity of the compounds of formula I was evaluated in lungs of spontaneously hypertensive rats (SHR), 5 minutes after i.v. injection (0.6 and 21 µmoles/kg) and 30 minutes, 60 minutes and 4 hours after oral administration (30 µmoles/kg) of the tested compounds.
After the removal of the lungs from SHR, the lung tissue was homogenized and incubated for 2 hours at 37°C in the presence of [^3H]Hyp-Gly-Gly, as a substrate.
The reaction was stopped by adding hydrochloric acid.
The released radiolabelled hyppuric acid was extracted with ethyl acetate and counted by liquid scintillation spectrometry, according to conventional methods.
The ACE-inhibitory activity of the tested compounds was expressed as percentage of ACE-inhibition in SHR lungs.

[1] = 30 minutes after administration, read-out: NEP-inhibition (kidneys) 30 minutes
[2] = 30 minutes after administration, read-out: ACE-inhibition (lungs) 30 minutes
[3] = 4 hours after administration, read-out: ACE-inhibition (lungs) 4 hours

Compound | NEP-inhibition (kidneys) 4 hours (NEP; 4 hours after administration) | inhibition at 30 µmol/kg (NEP; [1]) [%] | inhibition at 30 µmol/kg (ACE; [2]) [%] | inhibition at 30 µmol/kg (ACE; [3]) [%] | inhibition at 30 µmol/kg (NEP; 4 hours after administration, read-out: NEP-inhibition (kidneys) 4 hours) [%] | NEP-inhibition (kidneys) 30 minutes (NEP; 30 minutes after administration)
O=C(N[C@@H](Cc1ccccc1)C(=O)O)C(CS)Cc1ccc2c(c1)OCO2 (stereo partly drawn) [Compound R-1, N-[3-mercapto-2-(3,4-methylenedioxyphenyl)methyl-propionyl]-(S)-phenylalanine] | not active | 5 | 25 | 20 | – | –
O=C(N[C@@H](Cc1ccc(O)cc1)C(=O)O)C(CS)Cc1ccc2c(c1)OCO2 (stereo partly drawn) [Compound R-2, N-[3-mercapto-2-(3,4-methylenedioxyphenyl)methyl-propionyl)-(S)-tyrosine] | not active | 30 | 30 | 25 | – | –
CC(CS)C(=O)N[C@@H](Cc1ccc(O)cc1)C(=O)O (stereo partly drawn) [Compound R-3, N-(3-mercapto-2-methylpropanoyl)-L-tyrosine] | – | 10 | 25 | 20 | 5 | –
CC(CS)C(=O)N[C@@H](Cc1c[nH]c2ccccc12)C(=O)O (stereo partly drawn) [Compound R-4, N-(3-mercapto-2-methylpropanoyl)-L-triptophan] | not active | – | 25 | 10 | – | not active
